Experiments:
[1] = tested on: C. rodentium; settings: B10.D2 mice, vs control group
Procedure: 200 μl of the culture (a volume equivalent to 2-3×10^8 colony-forming unit (cfu) per mouse) was infected into the mice by oral administration through the diet. Mice were sacrificed after continued housing for a designated period of time. A segment of the distal colon was excised at 4.5 cm from the rectum and the fecal pellets were removed by washing with PBS. After weight measurement and macroscopic observation of the tissue, homogenization was performed with a Potter Elvehjem homogenizer (digital homogenizer, As One). The homogenate was serially diluted with cold PBS and then seeded on MacConkey's agar plates (Difco Laboratories). The number of the colonies produced on the plate was counted to determine CFU per mouse to be used as an indicator of the degree of infection. […]
Wild-type B10.D2 mice were orally infected with C. rodentium by the method as described in Example 3. Three days after infection, the mice were divided into three groups, and one group was sacrificed and the weight of the colon cleared of lumps of feces was measured. […] Each group was housed for three more days, and six days after the infection, the mice in the experimental and control groups were sacrificed and the weight of the colon was measured. […]

[2] = tested on: IFN-γ; settings: MLN cells from mice day 6 after infection, 30 mM LiCO3 in drinking water, vs control group; FIG. 8E
Procedure: The mesenteric lymph node (MLN) cells were isolated from the mesentery of the mice on day 12 of infection using a syringe needle. After cells were gently suspended, tissue fragments were removed by passing through a 100-μm mesh. Cells were then transferred to RPMI 1640 medium and culture was started at 37° C. Subsequently, the MLN cells were stimulated with bacterial lysate at 37° C. for 72 hr.
Meanwhile, MLN cells were isolated by the method as described in Example 3 from the mice 6 days after the oral infection. The isolated MLN cells were stimulated in vitro with C. rodentium lysate and IFN-γ produced was quantified by ELISA.

[3] = tested on: bone marrow-derived dendritic cells (BMDCs); assay: IL-12p70 production in LPS-stimulated BMDCs after pretreatment with GSK3β inhibitor (ELISA); settings: BMDCs pretreated 1 hr with 10 nM SB216763 or 5 mM LiCl, then 1 μg/ml LPS for 24 hr; FIG. 7B
Procedure: Bone marrow-derived dendritic cells (BMDCs) were isolated from wild-type mice by the method as described in Example 2. […] Meanwhile, after pretreatment for 1 hr with 10 nM GSK3β inhibitor SB216763 (Sigma) or 5 mM LiCl, the isolated BMDCs were stimulated with a 1 μg/ml LPS solution for 24 hr. The content of IL-12 in the culture supernatants after the stimulation was quantified using the ELISA kit specific to anti-mouse IL-12p70.

SMILES: O=C([O-])[O-].[Li+].[Li+] [LiCO3, lithium carbonate]
- symptom of bacterial infection in the colon (colon weight, macroscopic and histopathological observation) ([1]; 30 mM LiCO3 in drinking water from day 3 to day 6 after infection, FIG. 8A-C): relieved
- number of infecting bacteria in the colon (cfu) ([1]; 30 mM LiCO3 in drinking water, day 6 after infection, p<0.05, FIG. 8D): significantly decreased
- expression level of IFN-γ in the lymph node cells [2]: decreased

SMILES: [Cl-].[Li+] [LiCl, lithium chloride]
- production of IL-12 (IL-12p70 in culture supernatant) [3]: decrease

SMILES: Cn1cc(C2=C(c3ccc(Cl)cc3Cl)C(=O)NC2=O)c2ccccc21 [SB216763, reference compound]
- production of IL-12 (IL-12p70 in culture supernatant) [3]: decrease

From US20080317875A1, “Inhibitor of PI3 kinase-dependent inflammatory cytokine synthesis and method for inhibiting the same” (priority 2006, published 2008)
